Source: patent US6645976B1 (Eli Lilly and Company, priority 1994, dated 2003)
pIC50: −log10 of the molar value.

How the values were obtained:
[1] = molecular target: T1, recombinant human secreted phospholipase A2 (Homo sapiens, UniProt P14555); assay: sPLA2 Chromogenic Assay (Assay 1); format: biochemical; conditions: diheptanoyl thio-PC substrate, pH 7.5, 40° C. for 30 minutes, absorbance at 405 nanometers
T1 sequence (P14555 21-144): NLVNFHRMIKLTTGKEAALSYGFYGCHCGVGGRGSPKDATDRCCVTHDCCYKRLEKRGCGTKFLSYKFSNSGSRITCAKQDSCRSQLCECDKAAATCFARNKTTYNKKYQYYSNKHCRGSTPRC
Protocol: The following chromogenic assay procedure was used to identify and evaluate inhibitors of recombinant human secreted phospholipase A2. The assay described herein has been adapted for high volume screening using 96 well microtiter plates.
A measured volume of racemic dipheptanoyl thio PC supplied in chloroform at a concentration of 100 mg/ml is taken to dryness and redissolved in 10 millimolar TRITON X-100™ nonionic detergent aqueous solution. Reaction Buffer is added to the solution, then DTNB to give the Reaction Mixture.
The reaction mixture thus obtained contains 1 mM diheptanoyl thio-PC substrate, 0.29 mm Triton X-100™ detergent, and 0.12 mm DTMB in a buffered aqueous solution at pH 7.5.
1. Add 0.2 ml reaction mixture to all wells;
2. Add 10 ul test compound (or solvent blank) to appropriate wells, mix 20 seconds;
3. Add 50 nanograms of sPLA2 (10 microliters) to appropriate wells;
4. Incubate plate at 40° C. for 30 minutes;
All compounds were tested in triplicate. […] Each sample was titrated in triplicate and result values were averaged for plotting and calculation of IC50 values.

| Molecule | melting point [°C] | pIC50 [1] |
| --- | --- | --- |
| CCOC(=O)COc1cccn2c(Cc3cccc(Cl)c3)c(CC)c(C(=O)C(N)=O)c12 [Compound 37h, (8-(Carbethoxymethyloxy)-3-(m-chlorobenzyl)-2-ethylindolizin-1-yl)glyoxylamide] | 172 to 175 | – |
| CCc1c(C(=O)C(N)=O)c2c(OCC(=O)OC(C)OC(=O)OC(C)C)cccn2c1Cc1ccccc1-c1ccccc1 (centres unmarked) [Compound 59c, 2-(3-Biphenyl-2-ylmethyl-2-ethyl-8-(1-isopropyloxycarbonyloxyethoxycarbonylmethoxy)indolizin-1-yl)glyoxylamide] | – | 7.34 |
| CCc1c(C(=O)C(N)=O)c2c(OCC(=O)O)cccn2c1Cc1ccccc1[N+](=O)[O-] [Compound 52n, 2-(2-Ethyl-8-(carboxymethyloxy)-3-(o-nitrobenzyl)indolizine-1-yl)glyoxylamide] | – | 7.44 |
| CCc1c(C(=O)C(N)=O)c2c(OCC(=O)OCCC(=O)OC3(C)CCCC3)cccn2c1Cc1ccccc1-c1ccccc1 [Compound 59h, 2-(3-Biphenyl-2-ylmethyl-2-ethyl-8-(1-methylcyclopentyloxycarbonylethyloxycarbonyl-methyloxy)-indolizin-1-yl)glyoxylamide] | – | 7.21 |
| CCc1c(C(=O)C(=O)N(C)C)c2c(OCC(=O)O)cccn2c1Cc1ccccc1 [Compound 40c, (3-Benzyl-8-(carboxymethyloxy)-2-ethylindolizin-1-yl)glyoxyl-N,N-dimethylamide, reference compound] | – | < 4.30 |
| CCc1c(C(=O)C(N)=O)c2c(OCCC(=O)O)cccn2c1Cc1ccccc1-c1ccccc1 [Compound 70a, 2-(3-(Biphenyl-2-yl-methyl)-8-(carboxyethyloxy)-2-ethylindolizine-1-yl)glyoxylamide] | – | 7.36 |
| CCCCCC1CCC(Cc2c(CC)c(C(=O)C(N)=O)c3c(OCC(=O)O)cccn23)CC1 (centres unmarked) [Compound 52o, 2-(8-(Carboxymethyloxy)-2-ethyl-3-(4-n-pentylcyclohexylmethyl)indolizin-1-yl)glyoxylamide] | – | 7.60 |
| COC(=O)COc1cccn2c(Cc3ccccc3-c3ccccc3)c(SC)c(C(=O)C(N)=O)c12 [Compound 82, 2-(8-(Carbomethoxymethyloxy)-2-methylthio-3-(o-phenylbenzyl)indolizin-1-yl)glyoxylamide] | – | 6.92 |
| CCc1c(Cc2ccccc2)c2ccc(OCCCC(=O)O)cn2c1C(=O)C(N)=O [Compound 11, (1-Benzyl-6-(3-carboxypropyloxy)-2-ethylindolizin-3-yl)glyoxylamide] | – | 5.96 |
| CCOC(=O)CCCOc1ccn2c(Cc3ccccc3-c3ccccc3)c(CC)c(CC(N)=O)c2c1 [Compound 71a, 2-(7-(3-Carbethoxypropyloxy)-2-ethyl-3-(o-phenylbenzyl)indolizin-1-yl)acetamide] | – | 6.22 |
| CCc1c(C(=O)C(N)=O)c2c(OCC(=O)O)cccn2c1CC1CCCCCC1 [Compound 52d, 2-(8-Carboxymethyloxy-3-cycloheptylmethyl-2-ethylindolizin-1-yl)glyoxylamide] | – | 7.64 |
| Cc1c(C(=O)C(N)=O)c2c(OCC(=O)O)cccn2c1Cc1ccccc1 [Compound 40g, (3-Benzyl-8-(carboxymethyloxy)-2-methylindolizin-1-yl)glyoxylamide] | – | 8.10 |
| CCc1c(C(=O)C(=O)NC)c2c(OCC(=O)O)cccn2c1Cc1ccccc1 [Compound 40b, (3-Benzyl-8-(carboxymethyloxy)-2-ethylindolizin-1-yl)glyoxyl-N-methylamide, reference compound] | – | < 4.30 |
| CCc1c(CC(N)=O)c2c(OCC(=O)O)cccn2c1Cc1ccccc1-c1ccccc1 [Compound 22x, 2-(8-(Carboxymethyloxy)-2-ethyl-3-(o-phenylbenzyl)indolizin-1-yl)acetamide] | – | 7.85 |
| CCCCc1ccc(Cc2c(CC)c(C(=O)C(N)=O)c3c(OCC(=O)O)cccn23)cc1 [Compound 52s, 2-(3-(p-n-Butylbenzyl)-8-(carboxymethyloxy)-2-ethylindolizin-1-yl)glyoxylamide] | – | 7.96 |
| CCc1c(C(=O)C(N)=O)c2c(OCc3nnnn3C(c3ccccc3)(c3ccccc3)c3ccccc3)cccn2c1Cc1ccccc1-c1ccccc1 [Compound 59l, 2-(3-(Biphenyl-2-yl-methyl)-2-ethyl-8-(1-tritytretrazol(-5-yl)methyloxy)indolizine-1-yl)glyoxylamide] | – | 6.96 |
| NC(=O)C(=O)c1c(C2CC2)c(CC2CCCC2)n2cccc(OCC(=O)O)c12 [Compound 52v, 2-(8-(Carboxymethyloxy)-3-cyclopentylmethyl-2-cyclopropylindolizin-1-yl)glyoxylamide] | – | 7.54 |
| CCc1c(C(=O)C(N)=O)c2c(OCC(=O)OC)cccn2c1Cc1cccc(-c2ccccc2)c1 [Compound 57g, 2-(8-Carbomethoxymethyloxy-2-ethyl-3-(m-phenylbenzyl)indlolin-1-yl)glyoxylamide] | – | 7.10 |
| 2-(3-(Biphenyl-2-yl-methyl)-8-(carboxymethyloxy)-2-ethylindolizine-1-yl)glyoxylamide diglycolate [Compound 59j] | – | 7.28 |
| CCc1c(CC(N)=O)c2c(OCC(=O)O)cccn2c1Cc1cccc(Cl)c1 [Compound 22y, 2-(8-(Carboxymethyloxy)-3-(m-chlorobenzyl)-2-ethylindolizin-1-yl)acetamide] | – | 7.82 |
| CCc1c(C(=O)C(N)=O)c2c(OCC(=O)OC(C)C(=O)OC3CCCCC3)cccn2c1Cc1ccccc1-c1ccccc1 (centres unmarked) [Compound 59e] | – | 7.26 |

| Molecule | melting point [°C] | pIC50 [1] |
| --- | --- | --- |
| CCc1c(C(=O)C(N)=O)c2c(OCC(=O)O)cccn2c1CCc1ccccc1 [Compound 52i, 2-(8-(Carboxymethyoxy)-2-ethyl-3-(2-phenylethyl)indolizin-1-yl)glyoxylamide] | – | 7.29 |
| CCc1c(CC(N)=O)c2c(O)cccn2c1Cc1ccccc1-c1ccccc1 [Compound 20x, 2-(2-Ethyl-8-hydroxy-3-(o-phenylbenzyl)-indolizin-1-yl)acetamide] | – | 6.08 |
| CCc1c(C(=O)C(N)=O)c2cc(OCCCC(=O)O)ccn2c1Cc1ccccc1-c1ccccc1 [Compound 67c, 2-(7-(3-Carboxypropyloxy)-2-ethyl-3-(o-phenylbenzyl)indolizin-1-yl)glyoxylamide] | – | 6.85 |
| CSc1c(C(=O)C(N)=O)c2c(OCC(=O)O)cccn2c1Cc1ccccc1-c1ccccc1 [Compound 83, 2-(8-(Carboxymethyloxy)-2-methylthio-3-(o-phenylbenzyl)indolizin-lyl)-glyoxylamide] | – | 7.80 |
| CCc1c(C(=O)C(N)=O)c2c(OCC(=O)O)cccn2c1Cc1ccccc1 [Compound 40a, (3-Benzyl-8-(carboxymethyloxy)-2-ethylindolizin-1-yl)glyoxylamide] | – | 8.10 |
| CCc1c(C(=O)C(N)=O)c2cc(OCCCC(=O)O)ccn2c1Cc1ccccc1 [Compound 67a, 2-(3-Benzyl-7-(3-carboxylpropyloxy)-2-ethylindolizin-1-yl)glyoxylamide] | – | 6.70 |
| CCc1c(C(=O)C(N)=O)c2cc(OCCC(=O)O)ccn2c1Cc1ccccc1-c1ccccc1 [Compound 70b] | – | 6.62 |
| CCc1c(CC(N)=O)c2c(OCC(=O)OCc3ccccc3)cccn2c1Cc1ccccc1-c1ccccc1 [Compound 21x, 2-(8-(Benzyloxycarbonylmethyloxy)-2-ethyl-3-(o-phenylbenzyl)indolizin-1-yl)acetamide] | – | 6.85 |
| CCc1c(C(=O)C(N)=O)c2c(OCC(=O)O)cccn2c1Cc1cccs1 [Compound 52k, 2-(8-(Carboxymethyloxy)-2-ethyl-3-(thiophen-2-ylmethyl)indolizin-1-yl)glyoxylamide] | – | 7.96 |
| Cc1c(C(=O)C(N)=O)c2c(OCC(=O)O)cccn2c1Cc1ccccc1-c1ccccc1 [Compound 58a, 2-(3-(Biphenyl-2-ylmethyl)-8-carboxymethoxyl-2-methylindolizin-1-yl)glyoxylamide] | – | 8.10 |
| COC(=O)COc1cccn2c(Cc3cccc4ccccc34)c(C3CC3)c(C(=O)C(N)=O)c12 [Compound 57j, 2-(8-Carbomethoxymethyloxy-2-cyclopropyl-3-(1-naphthylmethyl)indlolin-1-yl)glyoxylamide] | – | 6.10 |
| CC(C)c1c(C(=O)C(N)=O)c2c(OCC(=O)O)cccn2c1Cc1ccccc1-c1ccccc1 [Compound 58c] | – | 7.46 |
| NC(=O)C(=O)c1c(C2CC2)c(Cc2ccccc2)n2cccc(OCC(=O)O)c12 [Compound 52r, 2-(3-Benzyl-8-carboxymethyloxy-2-cyclopropylindolizin-1-yl)-glyoxylamide] | – | 7.34 |
| CCc1c(C(=O)C(N)=O)c2c(OCC(=O)O)cccn2c1CC1CCCCC1 [Compound 52b, 2-(8-Carboxymethyloxy-3-cyclohexylmethyl-2-ethylindolizin-1-yl)glyoxylamide] | – | 7.68 |
| CCc1c(C(=O)C(N)=O)c2c(OCC(=O)OC)cccn2c1Cc1cccs1 [Compound 51k] | – | 6.66 |
| CCc1c(C(=O)C(N)=O)c2c(OCC(=O)O)cccn2c1Cc1ccccc1Cc1ccccc1 [Compound 52j, 2-(8-(Carboxymethyloxy)-3-o-benzylbenzyl-2-ethylindolizin-1-yl)glyoxylamide] | – | 8.22 |
| CCc1c(C(=O)C(N)=O)c2c(OCC(=O)OC(C)OC(=O)OC)cccn2c1Cc1ccccc1-c1ccccc1 (centres unmarked) [Compound 59b, 2-(3-Biphenyl-2-ylmethyl-8-(1-methoxycarbonyloxyethoxycarbonylmethoxy)-2-ethylindolizin-1-yl)glyoxylamide] | – | 7.96 |
| CCc1c(C(=O)C(N)=O)c2c(OCC(=O)O)cccn2c1Cc1cccc(OC)c1 [Compound 52m, 2-(2-Ethyl-8-(carboxymethyloxy)-3-(m-methoxybenzyl)indolizine-1-yl)glyoxylamide] | – | 7.68 |
| CCCCCc1c(CC)c(C(=O)C(N)=O)c2c(OCC(=O)O)cccn12 [Compound 52e, 2-(8-Carboxymethyloxy-2-ethyl-3-pentylindolizin-1-yl)glyoxylamide] | – | 7.21 |
| Cc1c(C(=O)C(N)=O)c2c(OCC(=O)O)cccn2c1CC1CCCC1 [Compound 52w, 2-(8-(Carboxymethyloxy)-3-cyclopentylmethyl-2-methylindolizin-1-yl)glyoxylamide] | – | 7.85 |
